# Measured values as given in US20080153792A1, “Drug Identification and Treatment Method” (priority 2006, published 2008).
# Columns and labels:
# [1] = test system: NF-κB in spleen cells of ICR mice; experiment: activated NF-κB in spleen cell nuclei after LPS, Example 8; assay type: in vivo, mouse; details: about 40 mg/kg i.p. 24 h before and 1 h after LPS; spleens 1.5 hours after LPS
# Procedure: The capacity of selected compounds to treat LPS induced shock/inflammation in mice was examined by a protocol similar to the protocol described above. Five groups of three ICR mice weighing about 30 g were each treated by intraperitoneal injection with 120 μL vehicle (30% sulfobutylether-cyclodextrin in water), androst-5-ene-3α,7β,16α,17β-tetrol in vehicle, androst-5-ene-3β,4β,16α,17β-tetrol in vehicle or 4β-acetoxyandrost-5-ene-3β,16α,17β-triol in vehicle. All drug and vehicle formulations were solutions, not suspensions. The sulfobutylether-cyclodextrin was obtained commercially (Captisol™, www.cyclexinc.com). There were two vehicle control groups one group received vehicle alone and the other received vehicle plus LPS. […] Drug was administered at about 40 mg/kg (1.2 mg drug/animal for each administration of the drugs). Spleens were harvested from the animals at 1.5 hours after injection of LPS and spleen cells were lysed and assayed for activated NF-κB by isolating nuclei from spleen cells and measuring NF-κB from the lysed nuclei. […] The level of activated NF-κB in spleen cells from the animals that were treated with vehicle and no LPS, was essentially the same as the activated NF-κB in spleen cells from drug treated animals.
# [2] = test system: human peripheral blood mononuclear cells (PBMC); experiment: human mixed lymphocyte reaction (MLR); assay type: cell-based; details: 6 days
# Procedure: Human mixed lymphocyte reaction (MLR). The capacity of 3β,16α-dihydroxy-17-oxoandrostane, 3β,17β-dihydroxy-16-oxoandrostane, 17α-ethynylandrost-5-ene-3β,7β,17β-triol, and 17β-aminoandrost-5-ene-3β-ol to affect antigen specific stimulation in which human T lymphocytes respond to a specific foreign antigen (major histocompatibility complex).
# Blood samples were obtained from 3 (2 males, […]) fasting, healthy human volunteers of 23-31 years old. […] The subjects were bled between […] to limit possible fluctuations in the circulating levels of hormones or cytokines that could have influenced the in vitro responses of their lymphocytes. Peripheral blood mononuclear cells (PBMC) were isolated by centrifugation on Ficoll-Hypaque (density 1.077, Biochrom AG, Berlin, Germany) gradients and resuspended in culture medium (RPMI 1640 supplemented with 2 mM L-glutamine, penicillin (100 U/mL) and streptomycin ([…]) (Invitrogen s.rl., Milan, Italy). Autologous (responder) inactivated plasma was used at 10%. Five hundred thousand responder PBMC (PBMCr) and 500,000 allogeneic irradiated (30 Gy) stimulator PBMC (PBMCs) were mixed at a ratio of 1:1 in 200 μL medium and cultured for 6 days in flat bottom 96 well plates (Nunc, Roskilde, Denmark) at a concentration of 300 nM or 30 nM for each of the 4 compounds. The compounds were dissolved in ethanol and then diluted to the desired concentration with culture medium leading to a final solution containing 0.01% of ethanol. This vehicle was used as control. Controls also included PBMCr and PBMCs cultured separately. During the last 8 hours of the culture period the PBMC were pulsed with 1 μCi/well [^3H] thymidine (Amersham, Milan, Italy). The cells were then harvested and radioactivity incorporation measured with a beta cell counter. The mean cpm of quadruplicate wells was calculated. Proliferation of T cells was expressed as a stimulation index: SI=cpm (PMBCs xPBMCr)/cpm (PBMCr)+cpm (PBMCs). Statistical analysis was performed using the Student's t test. The cpm obtained from quadruplicate of each test compound were compared to proliferative responses obtained in control PBMCr and PBMCs cultured in the presence of the vehicle. Differences were considered significant at p<0.05.
# Balb/c mice, ear burn = experiment: thermal injury model using mouse ear tissue; assay type: in vivo; details: injection in propylene glycol after burn
# Procedure: A thermal injury model using mouse ear tissue was used to characterize compounds for their capacity to treat inflammation associated with thermal trauma. […] Groups of Balb/c mice, approximately nine weeks old were given an identifying mark and then divided into control and treated subgroups. The thickness of the ear to be immersed in hot water was recorded, and then the entire ear of the anesthetized mouse was dipped into 52° C. water for 24 seconds. Each mouse was returned to its cage after an injection of either the propylene glycol vehicle (control) or 100 mg of compound in propylene glycol. Ear swelling changes were monitored on individual mice at pre-burn, and at various times after thermal injury. Ear swelling changes were monitored on individual mice at pre-injury and at 1, 3, 6, 9, 12, 18, 24 and 48 hours after thermal injury. Animals were treated with 100 mg of dehydroepiandrosterone (DHEA) dissolved in propylene glycol.
# [3] = test system: CD1 male mice, carrageenan-λ induced pleurisy; experiment: carrageenan-λ induced lung (pleural cavity) inflammation in mice; assay type: in vivo, mouse; details: 40 mg/kg by oral gavage, about 0.5 mg/mouse
# female SJL/J mice, EAE = experiment: experimental allergic encephalomyelitis (EAE), PLP 139-151, Example 6; assay type: in vivo, mouse; details: 5 mg/kg daily by oral gavage, through day 26
# Text: Treatment of autoimmune neurodegeneration. Three compounds, 17β-aminoandrost-5-ene-3β-ol, 17β-dimethylaminoandrost-5-ene-3β-ol and 17β-methylaminoandrost-5-ene-3β-ol were characterized for their capacity to ameliorate experimental allergic encephalomyelitis (EAE) in mice. This demyelinating condition is extensively used as a model for multiple sclerosis in humans and for testing of new therapies for treating multiple sclerosis, e.g., B. F. Bebo Jr. et al., J. Neurosci. Res. 52:420-426 1998; R. R. Voskuhl et al., Neuroscientist, 7:258-270 2001; H. Offner et al., J. Neuroimmunol., 130:128-139 2002.
# In this protocol, the compounds were administered to female SJL/J mice by oral gavage at the onset of disease symptoms. An antigen was used to initiate the EAE condition in the mice. […] Immunization with this peptide antigen initiates an autoimmune Th1 mediated demyelinating disease of the central nervous system. The antigen was prepared by solid phase synthesis and purified by high-performance liquid chromatography. […] The immunization protocol was subcutaneous injection over four sites on the hind flank on day 0. After immunization. the mice were assessed daily for clinical signs of EAE using the following scale: 0=no clinical signs or symptoms; 1=limp tail; 2=mild hind limb weakness and limp tail; 3=moderate hind limb weakness and limp tail or mild ataxia; 4=severe hind limb weakness and mild forearm weakness with moderate ataxia; 5=paraplegia with no more than moderate forelimb weakness; 6=paraplegia with severe forelimb weakness or severe ataxia or moribund condition.
# Mice in the vehicle control group began to show observable symptoms of EAE at about 10-11 days after immunization with the PLP antigen, which is typical for the EAE disease model. The animals were dosed daily with 17β-aminoandrost-5-ene-3β-ol, 17β-dimethylaminoandrost-5-ene-3β-ol or 17β-methylaminoandrost-5-ene-3β-ol by oral gavage beginning at day 1, which was 1 day after immunization.
# NF-κB = experiment: NF-κB-bla THP-1 β-lactamase reporter assay; assay type: cell-based, human; details: Homo sapiens, THP-1, read-out: IC50 for inhibition of NF-κB activation, after LPS stimulation; 50% of the maximum inhibition the compound can induce; averages of 2-4 assays
# MG-63 cells = experiment: reversal of glucocorticoid effects in MG-63 osteosarcoma cells; assay type: cell-based, human; details: 10 nM compound
# [4] = metabolic stability in liver microsomes: human
# Procedure: (§1) The protocol was performed as follows. […] (2) Set up samples as follows. […] (4) The internal standard/acetonitrile solution.
# [5] = metabolic stability in liver microsomes: mouse; details: 10 min
# Procedure: as §1
# [6] = metabolic stability in liver microsomes, species not stated; assay type: in vitro ADME; details: compared with androst-5-ene-3β,17β-diol reference compound
# Procedure: as §1
smiles,measurement,setting,value
"C[C@]12CC[C@H]3[C@@H](CC=C4[C@@H](O)[C@@H](O)CC[C@@]43C)[C@@H]1C[C@@H](O)[C@@H]2O [3β,4β,16α,17β-tetrahydroxyandrost-5-ene]",decrease of NF-κB activation compared to LPS+vehicle control group,[1],about 50%
"C[C@]12CC[C@H]3[C@@H](CCC4C[C@@H](O)CC[C@@]43C)[C@@H]1CC(=O)[C@@H]2O (stereo partly drawn) [3β,17β-dihydroxy-16-oxoandrostane]",immune suppression in the MLR,"[2]; either 300 nM or 30 nM, p>0.05",not appreciably immune suppressive
"CC(=O)O[C@@H]1C2=CC[C@H]3[C@@H]4C[C@@H](O)[C@H](O)[C@@]4(C)CC[C@@H]3[C@@]2(C)CC[C@@H]1O [4β-acetoxy-3β,16α,17β-trihydroxyandrost-5-ene]",decrease of NF-κB activation compared to LPS+vehicle control group,[1],about 50%
C[C@]12CC[C@H](O)CC1=CC[C@@H]1[C@@H]2CC[C@]2(C)C(=O)[C@H](Br)C[C@@H]12 [16α-bromodehydroepiandrosterone],protection against progressive ischemia after thermal injury to the ear,"Balb/c mice, ear burn",protected treated animals against much of the ischemic consequences
C[C@]12CC[C@H](O)CC1=CC[C@@H]1[C@@H]2CC[C@]2(C)C(=O)[C@H](Cl)C[C@@H]12 [16α-chlorodehydroepiandrosterone],protection against progressive ischemia after thermal injury to the ear,"Balb/c mice, ear burn",only slightly protective
C[C@]12CC[C@H](O)CC1=CC[C@@H]1[C@@H]2CC[C@]2(C)C(=O)[C@H](O)C[C@@H]12 [16α-hydroxydehydroepiandrosterone],protection against progressive ischemia after thermal injury to the ear,"Balb/c mice, ear burn",less protective
C[C@]12CC[C@H]3[C@@H](CC=C4C[C@@H](O)CC[C@@]43C)[C@@H]1CC[C@@H]2N [17β-aminoandrost-5-ene-3β-ol],anti-inflammation activity versus vehicle controls,[3],statistically significant anti-inflammation activity
same,activity on clinical severity of EAE symptoms,"female SJL/J mice, EAE",active
same,immune suppression in the MLR,"[2]; 300 nM, p<0.05",moderately immune suppressive
CN(C)[C@H]1CC[C@H]2[C@@H]3CC=C4C[C@@H](O)CC[C@]4(C)[C@H]3CC[C@]12C [17β-dimethylaminoandrost-5-ene-3β-ol],activity on clinical severity of EAE symptoms,"female SJL/J mice, EAE",active
CN[C@H]1CC[C@H]2[C@@H]3CC=C4C[C@@H](O)CC[C@]4(C)[C@H]3CC[C@]12C [17β-methylaminoandrost-5-ene-3β-ol],activity on clinical severity of EAE symptoms,"female SJL/J mice, EAE",active
"C[C@]12CC[C@H]3[C@@H]([C@H](O)C=C4C[C@@H](O)CC[C@@]43C)[C@@H]1C[C@@H](O)[C@@H]2O [androst-5-ene-3β,7α,16α,17β-tetrol]",IC50,NF-κB,> 10 µM
same,osteoprotegerin levels in the presence of 30 nM dexamethasone,MG-63 cells,near normal osteoprotegerin levels
same,parent remaining human microsomes,[4]; 10 min,100% (10 min)
same,parent remaining mouse microsomes,[5],100% (10 min)
"C[C@]12CC[C@H]3[C@@H](CC=C4C[C@@H](O)CC[C@@]43C)[C@@H]1C[C@@H](O)[C@@H]2O [androst-5-ene-3β,16α,17β-triol]",metabolism by microsomes,[6],"metabolized by microsomes at a rate similar to the androst-5-ene-3β,17β-diol reference compound"
"C[C@]12CC[C@H]3[C@@H](CC=C4C[C@@H](O)CC[C@@]43C)[C@@H]1CC[C@@H]2O [androst-5-ene-3β,17β-diol]",protection against progressive ischemia after thermal injury to the ear,"Balb/c mice, ear burn",protected treated animals against much of the ischemic consequences
same,parent remaining human microsomes,[4]; 10 min,39% (10 min)
same,parent remaining human microsomes,[4]; 90 min,30% (90 min)
same,parent remaining mouse microsomes,[5],25% (10 min)
